One assay relates to Nf1+/+ astrocytes. As to the kind of experiment: Cell cycle analysis by flow cytometry, Nf1+/+ astrocytes. It is filed as cell-based, mouse. To be noted: CXCL12 0.1 μg/ml. As to the method: Cell Cycle Analysis. Ethanol fixed cells were washed in PBS and resuspended in PI staining solution containing 0.1% Triton-X-100, 0.2 mg/ml RNase A, and 20 ug/ml Propidium Iodide in PBS. The cells were incubated for 15 minutes at 37° C., in the dark. Flow Cytometry was performed on a FACSCalibur system (Becton Dickinson, San Jose, Calif.) Data were analyzed using CellQuest software (Becton Dickinson, San Jose, Calif.). Aggregates and debris were excluded from the analysis.
The basis for the in vitro growth effects of CXCL12 was further evaluated by cell cycle analysis of asynchronously growing cultures of Nf1+/+ and Nf1−/− astrocytes in the presence and absence of CXCL12. In agreement with measurements of cell number, 15% more Nf1−/− astrocytes were in the S+G2M fraction of the cell cycle compared to Nf1+/+ astrocytes (P<0.005, data not shown). This decrease in Nf1+/+ cell number in response to CXCL12 was the result of both a 6% decrease in proliferation (S+G2-M) and a 38+/−8% increase in apoptosis (sub-G0). The increase in Nf1−/− cell number was the result of a 27+/−12% decline in apoptosis alone (FIG. 9C).
Background: Flow cytometry measures light scatter and fluorescence of single cells or particles in a stream.

For a further assay, the system named is cortical astrocytes. As to the kind of experiment: Intracellular cAMP by ELISA, primary cortical astrocytes. The class given is cell-based, mouse. To be noted: 1 μg/ml CXCL12. On the procedure: Primary astrocyte cultures. Primary astrocytes were cultured from 1 to 3-day-old BALB/C mice as described (57). The cortices were triturated into single cells in minimal essential medium (Invitrogen) containing 10% FCS, and then plated onto 75 cm^2 T-flasks (0.5 hemisphere/flask) for 10-14 days. Astrocytes were prepared by vigorous shaking of T-flasks overnight, removal of non-adherent cells, and isolation of the remaining adherent cells, with 0.1% trypsin.
Growth factor and drug treatment. Following serum-starvation for 24 hours, astrocytes, granule cells, U87 cells and Daoy cells, were treated with 1 μg/ml CXCL12 (PeproTech), […] AMD3465 (kind gift from Simon Fricker, AnorMED, Langley, BC, Canada) (200 μM Rolipram (Sigma), or 10 μM Forskolin (Sigma) as indicated.
Determination of cAMP concentration. Competitive immunoassay for cAMP concentration was performed exactly as directed by the manufacturer. Absorbance at 405 nm was measured and cAMP concentrations were determined by calculation based on a standard curve. Protein concentrations were measured by colormetric assay (Bio-Rad, Hercules, Calif.) according to the manufacturer's directions. cAMP values were normalized to protein for each sample individually.

A further assay addresses CXCR4 (Homo sapiens, UniProt P61073). As to the kind of experiment: Stimulated CXCR4 phosphorylation in LN428 GBM cells (western blot). The class given is cell-based. The arrangement: lysates from the glioblastoma cell line LN428, which is known to express high levels of CXCR4; endogenous in cells; host or cells: LN428 GBM cell line. On the procedure: Cell Culture, transfections and stimulation of CXCR4 phosphorylation. The U87 glioblastoma multiforme (GBM, grade IV) cell line was obtained from the American Type Culture Collection. The LN428 GBM cell line was a kind gift of Dr Erwin van Meir (Winship Cancer Center, Emory University, Atlanta, Ga.). U87 cells were grown in minimum essential a media supplemented with 10% fetal bovine serum ((FBS), Biomedia, Foster City, Calif.). LN428 cells were grown in DMEM (Fisher, Pittsburgh, Pa.) supplemented with 10% horse serum (Sigma). All cells were grown in the presence of penicillin-streptomycin. The coding sequence for human CXCR4 was obtained by high fidelity RT-PCR (Superscript III Platinum, Invitrogen), and cloned into the expression vector pMSCVneo (Clontech, Palo Alto, Calif.). Transfections were performed with 0.3 μg of plasmid DNA in 20 μl Lipofectamine (Invitrogen)/35 mm^2 tissue culture dish for 9 hours according to the manufacturer's instructions. Cells recovered in Optimem supplemented with 10% FBS. Transfected and non-transfected cells were placed in serum free media for 24 hours prior to treatment with agents to stimulate CXCR4 phosphorylation. Treatment was usually for 0 or 10 minutes with 1 μg/ml CXCL12 (Peprotech, Rocky Hill N.J.), 4 μM 4-Phorbol 12-myristate 13-acetate (PMA) or 10 nM EGF. In some experiments, CXCL12 was washed away and cells were incubated for an additional 20 minutes in serum free media alone.
Western Blot Analysis. Whole-cell extracts were obtained by lysing cells with lysis buffer (20 mM Tris pH 7.4, 137 mM NaCl, 10% Glycerol and 1% Triton X-100) supplemented with phosphatase inhibitor cocktail set II (Calbiochem, La Jolla, Calif.) and protease inhibitors PMSF (1 mM), leupeptin (0.005 mg/ml) and aprotonin (0.005 mg/ml). The proteins (50-75 μg) were resolved with 10% Bis-Tris gels (Invitrogen) and transferred onto the nitrocellulose membrane Hybond ECL (Amersham, Piscataway, N.J.) according to standard protocols. Polyclonal anti-CXCR4 antibody was used at a 1:500 dilution and P338-CXCR4 and P339-CXCR4 directed antibodies were used at 1:100 dilutions overnight at 4° C. This was followed by incubation with horseradish peroxidase-conjugated secondary antibody (1:15,000; Bio-Rad). Peroxide activity was detected using the enhanced chemiluminescence Supersignal West Dura system (Pierce, Rockford, Ill.). Mouse anti-actin antibody at a concentration of 1:1500 was used as a loading control. Peptide competitions and lambda phosphatase treatment were performed as described above.
The utility of these antibodies for evaluating the relationship between ligand binding and CXCR4 function is dependent upon their ability to distinguish a ligand activated form of the receptor. Serum starvation increased CXCL12 responsiveness (data not shown), and for all of these experiments LN428 GBM cells were serum starved for 24 hours prior to CXCL12 treatment. Serum starved LN428 cells were treated with 1 μg/ml CXCL12 for 0 or 10 minutes and the abundance of phospho-CXCR4 was determined by western blot and immuno-localization in fixed cells. […] A similar CXCL12-induced increase in P339-CXCR4 (FIG. 3B), but not P338-CXCR4 (data not shown) immunoreactivity was seen by immunofluorescent analysis of paraformaldehyde fixed cells. After 10 minutes of exposure to CXCL12, P339-CXCR4 can be seen localized to the surface of LN428 cells (FIG. 3B). CXCL12 was then washed away and cells were incubated in its absence for an additional 20 minutes. Surface labeling declined as a function of time and P339-CXCR4 was seen accumulating intracellularly.
Whether this is the only kinase that can phosphorylate these residues is unclear. The observation that protein kinase C (PKC) stimulated CXCR4 internalization also depends upon phosphorylation of this region of the molecule raises the question of whether these sites might also be PKC phosphorylation sites (17, 19, 27, 28). […]
A general note: In western blotting, separated proteins are transferred to a membrane and probed.

The mark [1] stands for this setting: 1 μg/ml CXCL12, 4 μM PMA or 10 nM EGF.

CXCR4, sequence (P61073 whole entry): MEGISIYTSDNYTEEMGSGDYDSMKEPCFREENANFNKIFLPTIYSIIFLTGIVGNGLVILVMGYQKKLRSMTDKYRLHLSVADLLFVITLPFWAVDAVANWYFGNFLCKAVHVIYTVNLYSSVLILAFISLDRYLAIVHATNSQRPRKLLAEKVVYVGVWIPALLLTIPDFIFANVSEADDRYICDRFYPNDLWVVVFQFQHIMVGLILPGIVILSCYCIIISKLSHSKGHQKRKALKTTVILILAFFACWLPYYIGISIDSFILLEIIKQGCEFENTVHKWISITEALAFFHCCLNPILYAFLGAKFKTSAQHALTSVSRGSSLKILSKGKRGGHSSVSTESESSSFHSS

For “CXCL12: chemokine ligand of CXCR4 (Peprotech)”, in the assay on Nf1+/+ astrocytes, the “decrease in proliferation (S+G2-M)” value turned out to be 6% and the “increase in apoptosis (sub-G0)” value is reported as 38+/−8%. The “cAMP, lower level of fluctuation” value in the assay with cortical astrocytes was 40 % of baseline. In the assay with CXCR4 (setting [1]), the P338 phosphorylation stimulated entry is “not” and the P339 phosphorylation result is “stimulated”. For the same substance, the “P338-CXCR4 levels after treatment” value with CXCR4 (1 μg/ml CXCL12, 10 minutes, serum starved LN428 cells) is listed as “unaffected”.
